According to patent publication US4092431A, “Pharmaceutical composition and method of the use thereof” (Chugai Seiyaku Kabushiki Kaisha, priority 1977, dated 1978):

How the values were obtained:
pylorus ligature ulcer = assay: Protective action on pylorus ligature ulcer formation; format: in vivo, Sprague-Dawley strain male rats; conditions: for Death Rate / Perforating Ulcers / Ulcer Index (mean value ± standard deviation) / Percent Inhibition: in the duodenum; for Ulcer Index (mean value ± standard deviation): scale 0 to 5, control 4.0 ± 1.3; for Percent Inhibition: ulcer index
Procedure: The pylorus of Sprague-Dawley strain male rats weighing 150-200 g that had abstained from food, but not water for 48 hours was ligatured under ether anethsia. Each rat was allowed to stand individually in a cage for 16 hours without food and water. At the end of this term, the rats were sacrificed by an overdose of diethyl ether. The stomach was taken out of each animal and the gastric mucosa was obserbed by the use of a dissecting microscope.
Ulcers observed in the gastric mucosa were evaluated on a scale of from 0 to 5 defined as follows.
0: No lesion was observed.
1: Hemorrhage and/or erosion were observed.
2: One to five small ulcers less than 3 mm in diameter were observed.
3: Six or more small ulcers and/or a large ulcer more than 3 mm in diameter were observed.
4: Two or more large ulcers were observed.
5: At least one perforating ulcer was observed.
A test compound was administered as an aqueous solution in an equivalent molar of hydrochloric acid in the duodenum immediately after the pylorus ligature.

stress-induced ulcer = assay: Inhibitory action on stress-induced ulcer formation; format: in vivo, Sprague-Dawley strain male rats; conditions: oral; for Ulcer Index (mean value ± standard deviation): Ulcer Index = a + b/10, control 6.1 ± 2.3; for Number of Ulcers/Stomach, 3 mm or larger: control 1.3; for Number of Ulcers/Stomach, up to 3 mm: control 45.6; for Percent Inhibition: ulcer index; for dose dependence of inhibiting action on ulcer formation: 30 mg/kg and above
Procedure: Sprague-Dawley strain male rats weighing 200-250 g were deprived of food for 24 hours, and then laid down on their backs on a screen and fixed by fastening their limbs with a strand. The fixed rats were submerged in water bath to the depth of ensiform process with their hind legs dipped first. Sixteen hours after the submerge, the rats were brought out from the bath and their stomachs were taken out. After light fixation with a 1% formalin aqueous solution, the stomach of each animal was cut open along their greater curvature and gastric mucosa was observed through a dissecting microscope. The ulcer was evaluated on an ulcer index calculated from the following equation: […]
wherein a is the number of big ulcers more than 3 mm in diameter and b is the number of small ulcers up to 3 mm in diameter.
A test compound was orally administered as a suspension in a 1% gum arabic aqueous solution, 10 minutes before exposure to stress.

acetic acid ulcer = assay: Action on the healing of acetic acid ulcers; format: in vivo, Sprague-Dawley strain male rats; conditions: oral; for Percent healing Rate / Ulcer Index (mean number ± standard deviation), product of major and minor axis: once a day for 15 days; for Ulcer Index (mean number ± standard deviation), product of major and minor axis: control 12.5 ± 6.0
Procedure: Sprague-Dawley strain male rate (8 weeks old) were etherized and their abdominal parts were cut open. A 20% acetic acid aqueous solution (0.05 ml) was injected into subserosal layer in the glandular part of stomach of each rat and the incisions were sutured.
From the fourth day after the operation, each rat was orally administered with 1-(3'-dimethylaminopropoxy)-2,4-bis(3"-methylbenzamido)-benzene in a dose of 10 mg/kg or 40 mg/kg. body weight as an aqueous solution in an equivalent molar of hydrochloric acid once a day for 15 days. On the day after the last administration, the rats were sacrificed by an overdose of diethyl ether and the stomach of each of the rats was taken out. After light fixation of the stomach with a 1% formalin solution, it was cut open along the greater curvature and the gastric mucosa was observed through a dissecting microscope. The ulcer was evaluated as the product (mm^2) of the major axis and the minor axis of the ulcer.

Acute toxicity in mice = conditions: mouse, in vivo, po

SMILES	inhibition of death of rats and formation of perforating ulcers (pylorus ligature ulcer; 200 mg/kg)	prevention of formation of gastric ulcers (pylorus ligature ulcer; 200 mg/kg)	Death Rate (pylorus ligature ulcer; 200 mg/kg)	Perforating Ulcers (pylorus ligature ulcer; 200 mg/kg)	Ulcer Index (mean value ± standard deviation) (pylorus ligature ulcer; 200 mg/kg)	Percent Inhibition (pylorus ligature ulcer; 200 mg/kg)	inhibition of the formation of ulcer (stress-induced ulcer; 100 mg/kg body weight)	Ulcer Index (mean value ± standard deviation) (stress-induced ulcer; 100 mg/kg)	Number of Ulcers/Stomach, 3 mm or larger (stress-induced ulcer; 100 mg/kg)	Number of Ulcers/Stomach, up to 3 mm (stress-induced ulcer; 100 mg/kg)	Percent Inhibition (stress-induced ulcer; 100 mg/kg)	Death Rate (pylorus ligature ulcer; 50 mg/kg)	Perforating Ulcers (pylorus ligature ulcer; 50 mg/kg)	Ulcer Index (mean value ± standard deviation) (pylorus ligature ulcer; 50 mg/kg)	Percent Inhibition (pylorus ligature ulcer; 50 mg/kg)	inhibition of death of rats and formation of perforating ulcers (pylorus ligature ulcer; 100 mg/kg or 200 mg/kg)	prevention of formation of gastric ulcers (pylorus ligature ulcer; 100 mg/kg or 200 mg/kg)	Death Rate (pylorus ligature ulcer; 100 mg/kg)	Perforating Ulcers (pylorus ligature ulcer; 100 mg/kg)	Ulcer Index (mean value ± standard deviation) (pylorus ligature ulcer; 100 mg/kg)	also measured
Cc1cccc(C(=O)Nc2ccc(C(=O)NCCCN(C)C)c(NC(=O)c3cccc(C)c3)c2)c1 [1-[N-(3'-dimethylaminopropyl)-carbamoyl]-2,4-bis(3"-methylbenzamido)-benzene]	completely inhibited the death of rats and the formation of perforating ulcers	prevented the formation of gastric ulcers on a statistically significant level	0%	0%	2.5 ± 1.4	38%	50-60%	2.4 ± 2.1	0.6	17.6	61%	–	–	–	–	–	–	–	–	–	–
Cc1cccc(C(=O)Nc2ccc(OCCCN(C)C)c(NC(=O)c3cccc(C)c3)c2)c1 [1-(3'-dimethylaminopropoxy)-2,4-bis(3"-methylbenzamido)-benzene]	–	–	0%	0%	1.0 ± 1.1	75%	–	2.0 ± 2.1	0.8	10.6	67%	33%	50%	4.0 ± 1.1	0%	completely inhibited the death of rats and the formation of perforating ulcers	prevented the formation of gastric ulcers on a statistically significant level	0%	0%	2.0 ± 1.4	Percent Inhibition (pylorus ligature ulcer; 100 mg/kg): 50%; dose dependence of inhibiting action on ulcer formation (stress-induced ulcer): inhibiting action increases as the dose level heightens; inhibition of the formation of ulcer (stress-induced ulcer; 30 mg/kg body weight): 50-60%; Ulcer Index (mean value ± standard deviation) (stress-induced ulcer; 30 mg/kg): 2.6 ± 2.1; Number of Ulcers/Stomach, 3 mm or larger (stress-induced ulcer; 30 mg/kg): 0.5; Number of Ulcers/Stomach, up to 3 mm (stress-induced ulcer; 30 mg/kg): 21.4; Percent Inhibition (stress-induced ulcer; 30 mg/kg): 57%; Ulcer Index (mean value ± standard deviation) (stress-induced ulcer; 45 mg/kg): 2.0 ± 1.7; Number of Ulcers/Stomach, 3 mm or larger (stress-induced ulcer; 45 mg/kg): 1.0; Number of Ulcers/Stomach, up to 3 mm (stress-induced ulcer; 45 mg/kg): 8.7; Percent Inhibition (stress-induced ulcer; 45 mg/kg): 67%; Ulcer Index (mean value ± standard deviation) (stress-induced ulcer; 67 mg/kg): 1.5 ± 2.7; Number of Ulcers/Stomach, 3 mm or larger (stress-induced ulcer; 67 mg/kg): 0.8; Number of Ulcers/Stomach, up to 3 mm (stress-induced ulcer; 67 mg/kg): 7.3; Percent Inhibition (stress-induced ulcer; 67 mg/kg): 75%; ulcer index in comparison with control (acetic acid ulcer; 10 mg/kg and 40 mg/kg): on a statistically significant lower level in comparison with those of the control; Percent healing Rate (acetic acid ulcer; 10 mg/kg): 45%; Ulcer Index (mean number ± standard deviation), product of major and minor axis (acetic acid ulcer; 10 mg/kg): 6.9 ± 5.6 mm^2; Percent healing Rate (acetic acid ulcer; 40 mg/kg): 42%; Ulcer Index (mean number ± standard deviation), product of major and minor axis (acetic acid ulcer; 40 mg/kg): 7.2 ± 5.1 mm^2
Cc1ccccc1C(=O)Nc1ccc(OCCCN(C)C)c(NC(=O)c2ccccc2C)c1 [1-(3'-dimethylaminopropoxy)-2,4-bis(2"-methylbenzamido)-benzene]	–	–	0%	0%	0	100%	–	0.4 ± 0.5	0	3.8	93%	20%	20%	3.2 ± 1.3	20%	completely inhibited the death of rats and the formation of perforating ulcers	prevented the formation of gastric ulcers on a statistically significant level	0%	0%	2.6 ± 0.5	Percent Inhibition (pylorus ligature ulcer; 100 mg/kg): 35%; dose dependence of inhibiting action on ulcer formation (stress-induced ulcer): inhibiting action increases as the dose level heightens; inhibition of the formation of ulcer (stress-induced ulcer; 30 mg/kg body weight): 50-60%; Ulcer Index (mean value ± standard deviation) (stress-induced ulcer; 30 mg/kg): 2.8 ± 0.8; Number of Ulcers/Stomach, 3 mm or larger (stress-induced ulcer; 30 mg/kg): 0.6; Number of Ulcers/Stomach, up to 3 mm (stress-induced ulcer; 30 mg/kg): 23.4; Percent Inhibition (stress-induced ulcer; 30 mg/kg): 54%; Ulcer Index (mean value ± standard deviation) (stress-induced ulcer; 45 mg/kg): 2.0 ± 0.6; Number of Ulcers/Stomach, 3 mm or larger (stress-induced ulcer; 45 mg/kg): 0.2; Number of Ulcers/Stomach, up to 3 mm (stress-induced ulcer; 45 mg/kg): 16.8; Percent Inhibition (stress-induced ulcer; 45 mg/kg): 67%; Ulcer Index (mean value ± standard deviation) (stress-induced ulcer; 67 mg/kg): 1.0 ± 0.9; Number of Ulcers/Stomach, 3 mm or larger (stress-induced ulcer; 67 mg/kg): 0.2; Number of Ulcers/Stomach, up to 3 mm (stress-induced ulcer; 67 mg/kg): 8.8; Percent Inhibition (stress-induced ulcer; 67 mg/kg): 84%
Cc1ccccc1C(=O)Nc1ccc(C(=O)NCCCN(C)C)c(NC(=O)c2ccccc2C)c1 [1-[N-(3'-dimethylaminopropyl)-carbamoyl]-2,4-bis(2"-methylbenzamido)-benzene]	completely inhibited the death of rats and the formation of perforating ulcers	prevented the formation of gastric ulcers on a statistically significant level	0%	0%	1.4 ± 1.4	65%	50-60%	3.0 ± 1.0	0.8	23.4	51%	–	–	–	–	–	–	–	–	–	LD50 (Acute toxicity in mice): > 11000 mg/kg
